Source: patent US20120077957A1, “Lactam-Bridged Melanocortin Receptor-Specific Peptides” (PALATIN TECHNOLOGIES, INC., priority 2009, published 2012)
pEC50, pKi: −log10 of the molar value. Bridge positions count the residues as written; N and C are the ends. Square brackets hold non-standard residues; d marks the D form. Peptide text beside a SMILES is read from it. Orn = NCCC[C@H](N)C(=O)O

How the values were obtained:
[1] = target: T1, human MC4-R (Homo sapiens, UniProt P32245); test: cAMP functional assay in HEK-293 T-REx cells expressing human MC4-R, induced with doxycycline 0.1 ng/mL (low density); format: cell-based; settings: doxycycline 0.1 ng/mL, averages of all comparable assays; for Emax: HEK293-T-REx, maximal cAMP stimulation, NDP-α-MSH = 100%, read-out: Emax; for pEC50: human MC4-R cAMP assay, read-out: Ec50
T1 construct: expressed in transfected cells; host or cells: HEK293 T-REx (tetracycline-regulated, Invitrogen); cell line from Palatin Technologies with license from the University of Michigan
T1 sequence (P32245 whole entry): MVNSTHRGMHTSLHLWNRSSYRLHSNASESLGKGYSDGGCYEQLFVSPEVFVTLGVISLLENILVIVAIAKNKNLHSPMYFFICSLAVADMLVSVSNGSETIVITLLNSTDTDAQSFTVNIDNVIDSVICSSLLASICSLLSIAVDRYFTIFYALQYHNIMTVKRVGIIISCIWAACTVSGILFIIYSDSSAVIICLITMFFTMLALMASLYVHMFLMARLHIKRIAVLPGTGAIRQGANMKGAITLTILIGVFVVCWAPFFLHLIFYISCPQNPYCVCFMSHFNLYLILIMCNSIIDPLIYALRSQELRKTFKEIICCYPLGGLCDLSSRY
From the text: A HEK293 cell line transfected with human MC4-R (from Palatin Technologies, US, with license from the University of Michigan) was used. The human MC4-R was introduced to HEK293 by using the T-REx™ System, Invitrogen. The T-REx™ System employs a tetracycline-regulated mammalian expression system that uses regulatory elements from the E. coli Tn10-encoded tetracycline (Tet) resistance operon. By use of the T-REx™ System, expression of the gene of interest, the human MC4-R gene, is repressed in the absence of tetracycline or doxycycline and induced in the presence of tetracycline or doxycycline (see T-REx™ System Manual, published by Invitrogen).
Cells were then counted and volume was adjusted to 5×10^4 cells per 200 μL.
The cells were then dispensed into 96-well plates (BD 353916) in 198 μL (about 5×10^4) cells/well and incubated for 10 minutes at 37° C. The compound to be tested was diluted with DMSO to a final concentration of 1 mM. Serial dilution was prepared in polypropylene removable 12-well library tube strips (VWR cat #83009-682). 120 μL of the 1 mM compound stock was pipetted in the second column on the plate.
2 μL of the standard, [Nle^4, D-Phe^7]alpha-Melanocyte Stimulating Hormone (NDP-α-MSH), or compound was added to the 96-well plate using the Janus robotic system. All assay samples were run in duplicate (i.e. each sample was in two low dox and two high dox plates, respectively). The plates were gently shaken and incubated for 15 minutes at 37° C. The reaction was stopped by adding 15 μL of lysis buffer per well and the plates were shakened for 30 minutes at room temperature.
Agonist stimulation of the MC4-R activates adenylate cyclase, which is an enzyme that catalyses the formation 3′,5′-cyclic adenosine monophosphate (cAMP) from adenosine triphosphate (ATP). […] Fluoresence ratios were then calculated as described in the CisBio HTRF kit, with GraphPad Prism software used to plot the change in fluorescence percent values versus cAMP concentration using the variable slope dose response curve and, based on calculated cAMP concentrations, to determine EC50 and Emax values. […]

[2] = target: T1, human MC4-R; test: Competitive inhibition binding assay with [I125]-NDP-α-MSH or Eu-NDP-α-MSH, membranes of HEK-293 cells expressing recombinant hMC4-R; settings: human MC4-R; averages of all comparable assays; read-out: Ki
Protocol: A competitive inhibition binding assay was performed using membrane homogenates prepared from HEK-293 cells that express recombinant hMC4-R, hMC3-R, or hMC5-R, and from B-16 mouse melanoma cells (containing endogenous MC1-R). In some instances, HEK-293 cells that express recombinant hMC1-R were employed. In the examples that follow, all MC3-R, MC4-R and MC5-R values are for human recombinant receptors. […] After incubation for 60 minutes at 37° C., the assay mixture was filtered and the membranes washed three times with ice-cold buffer. Filters were dried and counted in a gamma counter for bound radioactivity. […] Maximal specific binding (100%) was defined as the difference in radioactivity (cpm) bound to cell membranes in the absence and presence of 1 μM NDP-α-MSH. […] Ki values for test peptides of the present invention were determined using Graph-Pad Prism® curve-fitting software.
Alternatively, a competitive inhibition binding assay was performed employing Eu-NDP-α-MSH (PerkinElmer Life Sciences catalog No. AD0225) with determination by time-resolved fluorometry (TRF) of the lanthanide chelate. […] After incubation for 90 minutes at 37° C., the reaction was stopped by filtration over AcroWell 96-well filter plates (Pall Life Sciences). The filter plates were washed 4 times with 200 μL of ice-cold phosphate-buffered saline. DELFIA Enhancement solution (PerkinElmer Life Sciences) was added to each well. […] Each assay was conducted in duplicate and mean values were utilized. Ki values were determined by curve-fitting with Graph-Pad Prism® software using a one-site fixed-slope competition binding model.

Structure (SMILES) | Emax [1] [%] | pEC50 [1] | pKi [2]
CCCC[C@H](NC(C)=O)C(=O)N[C@H]1CCC(=O)NCCC[C@@H](C(N)=O)NC(=O)[C@H](Cc2c[nH]c3ccccc23)NC(=O)[C@H](CCCNC(=N)N)NC(=O)[C@@H](Cc2ccccc2)NC(=O)[C@H](Cc2c[nH]cn2)NC1=O [No. 2, Ac-Nle-cyclo(Glu-His-D-Phe-Arg-Trp-Orn)-NH2] | 93 | 10.00 | 10.00
CC(=O)N[C@@H](CCCNC(=N)N)C(=O)N[C@H]1CCC(=O)NCCC[C@@H](C(N)=O)NC(=O)[C@H](Cc2c[nH]c3ccccc23)NC(=O)[C@H](CCCNC(=N)N)NC(=O)[C@@H](Cc2ccccc2)NC(=O)[C@H](Cc2c[nH]cn2)NC1=O [No. 4, Ac-Arg-cyclo(Glu-His-D-Phe-Arg-Trp-Orn)-NH2] (Ac-REH[dF]RW[Orn]-NH2; lactam 2-7) | 83 | 9.70 | 9.00
CC(=O)N[C@@H](CCCNC(=N)N)C(=O)N[C@H]1CCC(=O)NCCC[C@@H](C(N)=O)NC(=O)[C@H](Cc2c[nH]c3ccccc23)NC(=O)[C@H](CCCNC(=N)N)NC(=O)[C@@H](Cc2ccccc2)NC(=O)[C@H](CCN)NC1=O [No. 6, Ac-Arg-cyclo(Glu-Dab-D-Phe-Arg-Trp-Orn)-NH2] | 94 | 9.52 | 8.40
CC(=O)N[C@@H](CCCNC(=N)N)C(=O)N[C@H]1CCC(=O)NCCC[C@@H](C(N)=O)NC(=O)[C@H](Cc2c[nH]c3ccccc23)NC(=O)[C@H](CCCNC(=N)N)NC(=O)[C@@H](Cc2ccccc2)NC(=O)[C@H](CCCN)NC1=O [No. 8, Ac-Arg-cyclo(GIu-Orn-D-Phe-Arg-Trp-Orn)-NH2] | 95 | 9.40 | 8.05
CC(=O)N[C@@H](CCCNC(=N)N)C(=O)N[C@H]1CCC(=O)NCCC[C@@H](C(N)=O)NC(=O)[C@H](Cc2c[nH]c3ccccc23)NC(=O)[C@H](CCCNC(=N)N)NC(=O)[C@@H](Cc2ccccc2)NC(=O)[C@H](CCC(N)=O)NC1=O [No. 12, Ac-Arg-cyclo(Glu-Gln-D-Phe-Arg-Trp-Orn)-NH2] | 96 | 8.22 | 8.52
CC(=O)N[C@@H](CCCNC(=N)N)C(=O)N[C@H]1CCC(=O)NCCC[C@@H](C(N)=O)NC(=O)[C@H](Cc2c[nH]c3ccccc23)NC(=O)[C@H](CCCNC(=N)N)NC(=O)[C@@H](Cc2ccccc2)NC(=O)[C@H](CCS(C)(=O)=O)NC1=O [No. 13, Ac-Arg-cyclo(Glu-Met(O2)-D-Phe-Arg-Trp-Orn)-NH2] | 71 | 8.30 | 8.10
CC(=O)N[C@@H](CCCNC(=N)N)C(=O)N[C@H]1CCC(=O)NCCC[C@@H](C(=O)O)NC(=O)[C@H](Cc2c[nH]c3ccccc23)NC(=O)[C@H](CCCNC(=N)N)NC(=O)[C@@H](Cc2ccccc2)NC(=O)[C@H](COCc2ccccc2)NC1=O [No. 17, Ac-Arg-cyclo(Glu-Ser(Bzl)-D-Phe-Arg-Trp-Orn)-OH] | 55 | 8.70 | 8.22
CC(=O)N[C@@H](CCCNC(=N)N)C(=O)N[C@H]1CCC(=O)NCCC[C@@H](C(N)=O)NC(=O)[C@H](Cc2c[nH]c3ccccc23)NC(=O)[C@H](CCCNC(=N)N)NC(=O)[C@@H](Cc2ccccc2)NC(=O)[C@@H]2C[C@@H](N)CN2C1=O [No. 32, Ac-Arg-cyclo(Glu-Pro(4R-NH2)-D-Phe-Arg-Trp-Orn)-NH2] | 55 | 8.10 | 8.22
CC(=O)NCCC[C@@H]1NC(=O)[C@@H](NC(=O)[C@H](CCCNC(=N)N)NC(C)=O)CCC(=O)NCCC[C@@H](C(N)=O)NC(=O)[C@H](Cc2c[nH]c3ccccc23)NC(=O)[C@H](CCCNC(=N)N)NC(=O)[C@@H](Cc2ccccc2)NC1=O [No. 33, Ac-Arg-cyclo(Glu-Orn(Acetyl)-D-Phe-Arg-Trp-Orn)-NH2] | 90 | 8.52 | 8.15
CC(=O)N[C@@H](CCCNC(=N)N)C(=O)N[C@H]1CCC(=O)NCCC[C@@H](C(N)=O)NC(=O)[C@H](Cc2c[nH]c3ccccc23)NC(=O)[C@H](CCCNC(=N)N)NC(=O)[C@@H](Cc2ccccc2)NC(=O)[C@H](CC(N)=O)NC1=O [No. 34, Ac-Arg-cyclo(Glu-Asn-D-Phe-Arg-Trp-Orn)-NH2] | – | 9.40 | 8.22
CCCC[C@H](NC(C)=O)C(=O)N[C@H]1CCCNC(=O)CC[C@@H](C(=O)O)NC(=O)[C@H](Cc2c[nH]c3ccccc23)NC(=O)[C@H](CCCNC(=N)N)NC(=O)[C@@H](Cc2ccccc2)NC(=O)[C@H](Cc2c[nH]cn2)NC1=O [No. 35, Ac-Nle-cyclo(Orn-His-D-Phe-Arg-Trp-Glu)-OH] | 97 | 8.70 | 9.00
CC(=O)N[C@@H](CCCNC(=N)N)C(=O)N[C@H]1CC(=O)NCCCC[C@@H](C(=O)O)NC(=O)[C@H](Cc2c[nH]c3ccccc23)NC(=O)[C@H](CCCNC(=N)N)NC(=O)[C@@H](Cc2ccccc2)NC(=O)[C@H](Cc2c[nH]cn2)NC1=O [reference compound] | 91 | 8.40 | –
CC(=O)N[C@@H](CCCNC(=N)N)C(=O)N[C@H]1CC(=O)NCCCC[C@@H](C(N)=O)NC(=O)[C@H](Cc2c[nH]c3ccccc23)NC(=O)[C@H](CCCNC(=N)N)NC(=O)[C@@H](Cc2ccccc2)NC(=O)[C@H](Cc2c[nH]cn2)NC1=O [reference compound] | 83 | – | –
CC(=O)N[C@@H](CCCNC(=N)N)C(=O)N[C@H]1CC(=O)NCCCC[C@@H](C(=O)O)NC(=O)[C@H](Cc2c[nH]c3ccccc23)NC(=O)[C@H](CCCNC(=N)N)NC(=O)[C@@H](Cc2ccccc2)NC(=O)[C@H](CCN)NC1=O [reference compound] | 91 | – | –
CC(=O)N[C@@H](CCCNC(=N)N)C(=O)N[C@H]1CC(=O)NCCCC[C@@H](C(=O)NC2CC2)NC(=O)[C@H](Cc2c[nH]c3ccccc23)NC(=O)[C@H](CCCNC(=N)N)NC(=O)[C@@H](Cc2ccccc2)NC(=O)[C@H](CCC(N)=O)NC1=O [reference compound] | 79 | 8.05 | –
CC(=O)N[C@H](CCCNC(=N)N)C(=O)N[C@H]1CC(=O)NCCCC[C@@H](C(N)=O)NC(=O)[C@H](Cc2c[nH]c3ccccc23)NC(=O)[C@H](CCCNC(=N)N)NC(=O)[C@@H](Cc2ccccc2)NC(=O)[C@H](Cc2c[nH]cn2)NC1=O [reference compound] | 89 | – | –
CC(=O)N[C@@H](CCCNC(=N)N)C(=O)N[C@H]1CC(=O)NCCCC[C@@H](C(N)=O)NC(=O)[C@H](Cc2c[nH]c3ccccc23)NC(=O)[C@H](CCCNC(=N)N)NC(=O)[C@@H](Cc2ccccc2)NC(=O)[C@@H]2CCCN2C1=O [reference compound] | 43 | – | –
CC(=O)N[C@H]1CC(=O)NCCCC[C@@H](C(N)=O)NC(=O)[C@H](Cc2c[nH]c3ccccc23)NC(=O)[C@H](CCCNC(=N)N)NC(=O)[C@@H](Cc2ccccc2)NC(=O)[C@H](CCC(N)=O)NC1=O [reference compound] (Ac-DQ[dF]RWK-NH2; lactam 1-6) | 35 | – | –
CC(=O)N[C@@H](CCCNC(=N)N)C(=O)N[C@H]1CC(=O)NCCCC[C@@H](C(N)=O)NC(=O)[C@H](Cc2c[nH]c3ccccc23)NC(=O)[C@H](CCCNC(=N)N)NC(=O)[C@@H](Cc2ccccc2)NC(=O)[C@H](CCCCN)NC1=O [reference compound] (Ac-RDK[dF]RWK-NH2; lactam 2-7) | 97 | 8.10 | –
CC(=O)N[C@@H](CCCNC(=N)N)C(=O)N[C@H]1CC(=O)NCCCC[C@@H](C(=O)O)NC(=O)[C@H](Cc2c[nH]c3ccccc23)NC(=O)[C@H](CCCNC(=N)N)NC(=O)[C@@H](Cc2ccccc2)NC(=O)[C@H](CC(N)=O)NC1=O [reference compound] (Ac-RDN[dF]RWK-OH; lactam 2-7) | 73 | – | –
